Test results from ChEMBL document CHEMBL5143629, “Synthesis and evaluation of dual fatty acid amide hydrolase-monoacylglycerol lipase inhibition and antinociceptive activities of 4-methylsulfonylaniline-derived semicarbazones” (Bioorg Med Chem, 2022).
Activity calls are given as the source filed them.

Tests used:
[1] = target: T1, Fatty-acid amide hydrolase 1 (Homo sapiens, UniProt O00519); experiment: Inhibition of human recombinant FAAH using arachidonoyl as substrate preincubated for 5 mins followed by substrate addition by fluorescence based assay
T1 sequence (O00519 whole entry): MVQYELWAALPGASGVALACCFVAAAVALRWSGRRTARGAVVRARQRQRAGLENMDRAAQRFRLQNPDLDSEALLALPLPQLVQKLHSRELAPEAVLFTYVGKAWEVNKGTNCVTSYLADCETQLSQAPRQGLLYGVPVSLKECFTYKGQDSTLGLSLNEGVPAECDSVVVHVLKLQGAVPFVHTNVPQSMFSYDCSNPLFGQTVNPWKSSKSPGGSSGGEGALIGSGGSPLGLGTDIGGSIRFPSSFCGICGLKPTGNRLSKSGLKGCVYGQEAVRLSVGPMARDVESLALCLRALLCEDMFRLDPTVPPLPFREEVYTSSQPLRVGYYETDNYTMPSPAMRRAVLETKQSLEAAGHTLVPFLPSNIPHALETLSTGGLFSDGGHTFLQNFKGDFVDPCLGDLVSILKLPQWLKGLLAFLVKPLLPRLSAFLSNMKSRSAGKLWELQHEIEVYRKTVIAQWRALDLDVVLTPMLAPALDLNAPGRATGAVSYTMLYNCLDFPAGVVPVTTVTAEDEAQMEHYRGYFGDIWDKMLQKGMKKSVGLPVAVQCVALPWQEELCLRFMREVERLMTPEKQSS

Monoglyceride lipase [2] = target: T2, Monoglyceride lipase (Homo sapiens, UniProt Q99685); experiment: Inhibition of human recombinant MAGL using 4-nitrophenyl acetate as substrate preincubated for 5 mins followed by substrate addition by fluorescence based colorimetry assay
T2 sequence (Q99685 whole entry): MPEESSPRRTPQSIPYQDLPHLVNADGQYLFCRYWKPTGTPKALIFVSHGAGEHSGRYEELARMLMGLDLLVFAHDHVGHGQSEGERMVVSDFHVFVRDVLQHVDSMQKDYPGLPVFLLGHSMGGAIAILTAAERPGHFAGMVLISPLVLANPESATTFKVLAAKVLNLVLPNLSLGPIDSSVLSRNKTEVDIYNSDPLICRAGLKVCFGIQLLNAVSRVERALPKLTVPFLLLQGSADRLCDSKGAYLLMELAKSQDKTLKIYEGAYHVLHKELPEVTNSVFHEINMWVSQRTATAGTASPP

[3] = Permeability of the compound across blood brain barrier incubated for 18 hrs by UV plate reader based PAMPA assay; type: ADME, tissue-based; conditions: read-out: permeability
Monoglyceride lipase [4] = target: T2, Monoglyceride lipase; experiment: Inhibition of human recombinant MAGL incubated for 5 mins followed by substrate addition by cayman fluorescence based multimode microplate reader assay
[5] = target: T1, Fatty-acid amide hydrolase 1; experiment: Inhibition of recombinant human FAAH incubated for 5 mins followed by substrate addition by cayman fluorescence based multimode microplate reader assay
[6] = Acute toxicity in rat assessed as RDW level at 2000 mg/kg, po measured after 14 days; type: organism-based; conditions: in vivo, 336 h, time 14 day
[7] = Acute toxicity in rat assessed as lymphocytes level at 2000 mg/kg, po measured after 14 days; type: organism-based; conditions: in vivo, 336 h, time 14 day
[8] = Acute toxicity in rat assessed as reduction in food and water consumption at 2000 mg/kg, po measured after 14 days; type: organism-based; conditions: in vivo, 336 h, time 14 day
[9] = Aqueous solubility of compound in PBS at pH 7.4 measured for 20 hrs by HPLC-UV analysis; type: physicochemical
[10] = Acute toxicity in rat assessed as body weight at 2000 mg/kg, po measured after 14 days; type: organism-based; conditions: in vivo, 336 h, time 14 day
Rattus norvegicus [11] = experiment: Antinociceptive activity in CCI surgery-neuropathic pain induced nerve injured rat model assessed tail flick latency at 5 to 20 mg/kg for 60 to 120 mins measured on day 14; type: functional, organism-based; conditions: dose 5-20 mg/kg, time 60-120 min
SH-SY5Y [12] = experiment: Neuroprotective activity against LPS-induced cell death in human SH-SY5Y cells assessed as cell viability at 30 uM after 24 hrs by MTT assay; type: functional; conditions: read-out: Activity
[13] = Acute toxicity in rat assessed as neutrophils level at 2000 mg/kg, po measured after 14 days; type: organism-based; conditions: in vivo, 336 h, time 14 day
[14] = target: T3, Fatty-acid amide hydrolase 1 (Homo sapiens) (UniProt O00519); experiment: Non-competitive inhibition of FAAH (unknown origin) assessed as increase in Km at 10 to 40 nM using arachidonoyl as substrate by Lineweaver-Burk plot analysis; conditions: dose 10-40 nM
T3 sequence (whole entry): T1 sequence (O00519 whole entry)

SH-SY5Y [15] = experiment: Neuroprotective activity against LPS-induced cell death in human SH-SY5Y cells assessed as cell viability at 100 uM after 24 hrs by MTT assay; type: functional; conditions: read-out: Activity
[16] = target: T1, Fatty-acid amide hydrolase 1; experiment: Non-competitive inhibition of FAAH (unknown origin) using arachidonoyl as substrate by Dixon plot analysis
[17] = Cmax in 12 to 16 hrs fasted Wistar rat at 20 mg/kg, po measured after 0.5 to 48 hrs by HPLC analysis; type: ADME, organism-based; set-up: time upper 16 hrs, dose 20 mg/kg, time lower 12 hrs, route po; conditions: in vivo
[18] = Acute toxicity in rat assessed as effect on total bilirubin level at 2000 mg/kg, po measured after 14 days; type: organism-based; conditions: in vivo, 336 h, time 14 day
[19] = target: T3, Fatty-acid amide hydrolase 1 (Homo sapiens); experiment: Reversible inhibition of FAAH (unknown origin) using arachidonoyl as substrate by jump dilution method; conditions: time <= 60.0 min
[20] = Acute toxicity in rat assessed as serum triglycerides level at 2000 mg/kg, po measured after 14 days; type: organism-based; conditions: in vivo, 336 h, time 14 day
[21] = Acute toxicity in rat assessed as serum cholestrol level at 2000 mg/kg, po measured after 14 days; type: organism-based; conditions: in vivo, 336 h, time 14 day
[22] = AUC(0 to t) in 12 to 16 hrs fasted Wistar rat at 20 mg/kg, po measured after 0.5 to 48 hrs by HPLC analysis; type: ADME, organism-based; set-up: time upper 16 hrs, dose 20 mg/kg, time lower 12 hrs, route po; conditions: in vivo
Rattus norvegicus [23] = experiment: Ex vivo inhibition in rat brain assessed as reduction in FAAH level at 10 to 20 mg/kg, ip incubated for 20 mins in presence of AMC by fluorescence based multimode reader analysis; type: functional, organism-based; conditions: dose 10-20 mg/kg
[24] = Acute toxicity in rat assessed as behavioral abnormalities at 2000 mg/kg, po measured after 14 days; type: organism-based; conditions: in vivo, 336 h, time 14 day
[25] = Acute toxicity in rat assessed as hemoglobin level at 2000 mg/kg, po measured after 14 days; type: organism-based; conditions: in vivo, 336 h, time 14 day
[26] = Acute toxicity in rat assessed as serum uric acid level at 2000 mg/kg, po measured after 14 days; type: organism-based; conditions: in vivo, 336 h, time 14 day
[27] = Effect on motor coordination in CCI surgery-neuropathic pain induced nerve injured rat model at 20 mg/kg by rotarod test; type: toxicity, organism-based; conditions: in vivo
[28] = Acute toxicity in rat assessed as MPV level at 2000 mg/kg, po measured after 14 days; type: organism-based; conditions: in vivo, 336 h, time 14 day
[29] = Acute toxicity in rat assessed as serum alkaline phosphates level at 2000 mg/kg, po measured after 14 days; type: organism-based; conditions: in vivo, 336 h, time 14 day
SH-SY5Y [30] = experiment: Cytotoxicity against human SH-SY5Y cells assessed as cell death upto 100 uM after 24 hrs by MTT assay; type: toxicity, cell-based
[31] = Acute toxicity in rat assessed as SGPT level at 2000 mg/kg, po measured after 14 days; type: organism-based; conditions: in vivo, 336 h, time 14 day
[32] = Acute toxicity in female rat assessed as effect on liver histopathology at 2000 mg/kg, po measured after 14 days; type: organism-based; conditions: in vivo, 336 h, time 14 day
[33] = Acute toxicity in rat assessed as SGOT level at 2000 mg/kg, po measured after 14 days; type: organism-based; conditions: in vivo, 336 h, time 14 day
[34] = Tmax in 12 to 16 hrs fasted Wistar rat at 20 mg/kg, po measured after 0.5 to 48 hrs by HPLC analysis; type: ADME, organism-based; conditions: in vivo, time 12-16 hrs
[35] = Acute toxicity in rat assessed as WBC level at 2000 mg/kg, po measured after 14 days; type: organism-based; conditions: in vivo, 336 h, time 14 day
[36] = MRT (0 to infinity) in 12 to 16 hrs fasted Wistar rat at 20 mg/kg, po measured after 0.5 to 48 hrs by HPLC analysis; type: ADME, organism-based; conditions: in vivo, time 12-16 hrs
[37] = target: T3, Fatty-acid amide hydrolase 1 (Homo sapiens); experiment: Non-competitive inhibition of FAAH (unknown origin) assessed as decrease in Vmax at 10 to 40 nM using arachidonoyl as substrate by Lineweaver-Burk plot analysis; conditions: dose 10-40 nM
[38] = Effect on locomotory activity in CCI surgery-neuropathic pain induced nerve injured rat model at 20 mg/kg by rotarod test; type: toxicity, organism-based; conditions: in vivo
Rattus norvegicus [39] = experiment: Antinociceptive activity in CCI surgery-neuropathic pain induced nerve injured rat model assessed as increase in mechanical ipsilateral paw withdrawal threshold at 5 to 20 mg/kg for 30 to 240 mins measured on day 14; type: functional, organism-based; conditions: dose 5-20 mg/kg, time 30-240 min
[40] = target: T4, Monoglyceride lipase (Rattus norvegicus) (UniProt Q8R431); experiment: Ex vivo inhibition in rat brain assessed as reduction in MAGL level at 10 to 20 mg/kg, ip incubated for 20 mins in presence of NPA by fluorescence based multimode reader analysis; type: functional, organism-based; conditions: dose 10-20 mg/kg
T4 sequence (whole entry): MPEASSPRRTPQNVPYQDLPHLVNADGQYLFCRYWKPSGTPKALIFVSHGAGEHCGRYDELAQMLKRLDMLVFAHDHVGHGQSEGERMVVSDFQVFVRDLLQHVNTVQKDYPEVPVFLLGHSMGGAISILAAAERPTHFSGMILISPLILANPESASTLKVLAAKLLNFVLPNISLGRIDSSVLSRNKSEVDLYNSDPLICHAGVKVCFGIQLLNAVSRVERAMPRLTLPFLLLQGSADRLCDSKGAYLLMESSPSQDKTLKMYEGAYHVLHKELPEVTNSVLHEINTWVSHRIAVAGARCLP

[41] = Half life in 12 to 16 hrs fasted Wistar rat at 20 mg/kg, po measured after 0.5 to 48 hrs by HPLC analysis; type: ADME, organism-based; conditions: in vivo, time 12-16 hrs

C#CCN1C(=O)/C(=N/NC(=O)Nc2ccc(S(C)(=O)=O)cc2)c2ccccc21
IC50 [1]: 520 nM

CS(=O)(=O)c1ccc(NC(=O)N/N=C\c2ccc(Cl)cc2Cl)cc1
IC50 [1]: 19 nM

CS(=O)(=O)c1ccc(NC(=O)N/N=C\c2ccccc2Cl)cc1
IC50 [1]: 1870 nM

C/C(=N/NC(=O)Nc1ccc(S(C)(=O)=O)cc1)c1ccc([N+](=O)[O-])cc1
IC50 [1]: 960 nM

CS(=O)(=O)c1ccc(NC(=O)N/N=C\c2ccc(O)cc2)cc1
IC50 [1]: 780 nM

C/C(=N/NC(=O)Nc1ccc(S(C)(=O)=O)cc1)c1ccc(O)cc1
IC50 [1]: 1460 nM

C/C(=N/NC(=O)Nc1ccc(S(C)(=O)=O)cc1)c1ccc(Br)cc1Br
IC50 (Monoglyceride lipase [2]): > 10000 nM | IC50 [1]: 135 nM

Cc1nnc2n1-c1ccc(Cl)cc1C(c1ccccc1)=NC2 [ALPRAZOLAM]
Papp at 18 h [3]: 4.02 ×10⁻⁶ cm/s

CCn1cc(C(=O)O)c(=O)c2cc(F)c(N3CCNC(C)C3)c(F)c21 (centres undefined) [LOMEFLOXACIN]
Papp at 18 h [3]: 0.8 ×10⁻⁶ cm/s

O=C1Nc2cc(Cl)ccc2/C1=N\NC(=O)c1c(O)cccc1Cl
IC50 (Monoglyceride lipase [4]): 29 nM | IC50 [5]: 31 nM

C/C(=N/NC(=O)Nc1ccc(S(C)(=O)=O)cc1)c1ccc(F)cc1
IC50 [1]: 93 nM

CS(=O)(=O)c1ccc(NC(=O)N/N=C\c2ccccc2O)cc1
IC50 [1]: 720 nM

CC(=O)[C@H]1CC[C@H]2[C@@H]3CCC4=CC(=O)CC[C@]4(C)[C@H]3CC[C@]12C [PROGESTERONE]
Papp at 18 h [3]: 12.2 ×10⁻⁶ cm/s

CS(=O)(=O)c1ccc(NC(=O)N/N=C\c2c(Cl)cccc2Cl)cc1
Activity [6]: Non-Toxic | Activity [7]: Non-Toxic | Activity [8]: Non-Toxic | solubility at 20 h [9]: < 1 µg/mL | Activity [10]: Non-Toxic | Activity (Rattus norvegicus [11]): Active | viability at 30 µM (SH-SY5Y [12]): 70% | Activity [13]: Non-Toxic | inhibition [14]: Active | viability at 100 µM (SH-SY5Y [15]): 80% | Ki [16]: 28 nM | Cmax [17]: 22000 ng/mL | Activity [18]: Non-Toxic | inhibition [19]: Active | Activity [20]: Non-Toxic | IC50 [1]: 11 nM | Papp at 18 h [3]: 10.2 ×10⁻⁶ cm/s | Activity [21]: Non-Toxic | AUC(0-t) [22]: 8920 ng·h/mL | Activity (Rattus norvegicus [23]): Active | Activity [24]: Non-Toxic | Activity [25]: Non-Toxic | Activity [26]: Non-Toxic | Activity [27]: Non-Toxic | Activity [28]: Non-Toxic | Activity [29]: Non-Toxic | Activity (SH-SY5Y [30]): Non-Toxic | Activity [31]: Non-Toxic | Activity [32]: Non-Toxic | Activity [33]: Non-Toxic | Tmax [34]: 30 min | Activity [35]: Non-Toxic | MRT inf [36]: 30 min | inhibition [37]: Active | Activity [38]: Non-Toxic | Activity (Rattus norvegicus [39]): Active | Activity [40]: Active | half-life [41]: 34.8 min

CS(=O)(=O)c1ccc(NC(=O)NN=C(c2ccccc2)c2ccccc2)cc1
IC50 [1]: 330 nM
